The results in this text go back to patent publication US20040022850A1, “Modified release formulation” (priority 2000, published 2004).

The nature of the data set: Solubility of the model drugs. Type of data set: physicochemical.

The solubility is the dissolved amount per volume that the medium holds.

In brackets after ≈: the same amount, converted by molar mass.

In turn, `CCCCOC(=O)c1ccc(O)cc1` [butyl paraben] registered a solubility of 200 µg/mL (≈ 1030 µM).
The figure for `CC(C)n1c(/C=C/C(O)CC(O)CC(=O)O)c(-c2ccc(F)cc2)c2ccccc21` (centres unmarked) [fluvastatin] is greater than 50000 µg/mL.
